Each block holds one molecule with its values, some of them ahead of it.
Columns and labels:
[1] = biological target: T1, human TRPA1 (Homo sapiens, UniProt O75762, K186N/R3C/R58T); test: TRPA1 Protocol-FLIPR Assay (intracellular Ca2+); type: cell-based
T1 construct: expressed in transfected cells
Experimental: To determine whether TRPA1 is activated, the intracellular calcium ion (Ca^2+) level from transfected cells with the TRPA1 receptor sequence (SEQ ID NO: 2) was measured. HEK-293 cells stably transfected with human TRPA1 were grown in 15 ml growth medium (high glucose DMEM (Dulbecco's Modification of Eagle's Medium) supplemented with 10% FBS (fetal bovine serum), 100 μg/ml penicillin/streptomycin, 100 μg/ml G418) in a 75cm^2 flask for 3 days at 37° C. in a mammalian cell culture incubator set at 5% CO2. Cells were detached with addition of 10 ml of PBS (phosphate buffered saline) by hand shaking gently and transferred to a 50 ml tube and centrifuged at 850 rpm for 3 minutes to remove PBS. After centrifugation, a pellet of cells was formed in the bottom of the tube separating them from the supernatant solution. The supernatant was discarded and the cell pellet suspended in 1 ml of fresh growth medium to which 5 μl (12.5 μg) of Fluo-4 AM (Molecular Probes, Inc.) calcium indicator was added and incubated for 30 minutes with gentle shaking. At the end of the 30 minutes, 45 ml of assay buffer (1× HBSS (Hank's Balanced Salt Solution), 20 mM HEPES (4-(2-Hydroxyethyl)-1-piperazineethanesulfonic acid)) was added to wash the cells and the resulting combination was then centrifuged at 850 rpm for 3 minutes to remove excess buffer and Fluo-4 AM calcium indicator.
The pelleted cells were re-suspended in 10 ml assay buffer and 90 μll aliquots (˜50,000 cells) per well delivered to a 96-well assay was placed into a fluorometric imaging plate reader (FLIPR TETRA from Molecular Devices) and basal fluorescence recorded (excitation wave length 488 nm and emission wave length 510 nm). Then 20 μl of the test compound being tested was added and fluorescence recorded (TABLES 2 and 3).
To determine if a compound was an agonist the direct effect of a test compound was determined. If any increase in fluorescence over background was noted, then the compound was considered an agonist. The agonist activity was expressed relative to that observed with a benchmark agonist such as 50 μm allyl isothiocyanate for TRPAL

[2] = biological target: T2, human TRPV1 (Homo sapiens, UniProt Q8NER1, M315I/T336M); test: TRPV1 Protocol-FLIPR Assay (intracellular Ca2+); type: cell-based
T2 construct: expressed in transfected cells
T2 sequence (Q8NER1 whole entry M315I/T336M): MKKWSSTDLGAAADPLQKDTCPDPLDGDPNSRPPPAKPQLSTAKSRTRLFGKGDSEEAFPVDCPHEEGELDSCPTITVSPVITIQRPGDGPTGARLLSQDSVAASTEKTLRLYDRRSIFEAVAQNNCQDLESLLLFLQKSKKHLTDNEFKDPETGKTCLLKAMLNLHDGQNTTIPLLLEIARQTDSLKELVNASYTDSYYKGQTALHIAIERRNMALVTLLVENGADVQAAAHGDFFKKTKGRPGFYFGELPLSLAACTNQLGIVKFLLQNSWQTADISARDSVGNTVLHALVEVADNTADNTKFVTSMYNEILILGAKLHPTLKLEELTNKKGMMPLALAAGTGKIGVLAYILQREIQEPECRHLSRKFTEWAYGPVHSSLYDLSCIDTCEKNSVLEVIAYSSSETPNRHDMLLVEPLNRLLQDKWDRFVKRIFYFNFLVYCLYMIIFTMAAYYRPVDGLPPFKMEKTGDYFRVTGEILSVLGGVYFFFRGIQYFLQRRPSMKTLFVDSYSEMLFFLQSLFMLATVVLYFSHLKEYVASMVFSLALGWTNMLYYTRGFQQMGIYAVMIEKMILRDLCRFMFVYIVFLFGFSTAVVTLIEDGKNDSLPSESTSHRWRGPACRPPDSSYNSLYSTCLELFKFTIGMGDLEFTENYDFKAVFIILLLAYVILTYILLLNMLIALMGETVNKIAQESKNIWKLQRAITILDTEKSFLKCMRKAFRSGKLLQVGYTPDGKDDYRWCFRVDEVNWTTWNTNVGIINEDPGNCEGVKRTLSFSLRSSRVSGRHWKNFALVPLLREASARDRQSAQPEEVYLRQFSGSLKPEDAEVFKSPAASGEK
Experimental: To determine whether TRPV1 was activated, the intracellular calcium ion (Ca^+2) levels from cells transfected with the TRPV1 receptor sequence (SEQ ID NO: 1) were measured. […] Cells were detached with addition of 10 ml of PBS (phosphate buffered saline) by gentle hand shaking. Cells were transferred to a 50 ml tube and centrifuged at 850 rpm for 3 minutes to remove PBS. After centrifugation, a pellet of cells formed in the bottom of the tube separating them from the supernatant solution. The supernatant was discarded and the cell pellet suspended in 1 ml of fresh growth medium to which 5 μl (12.5 μg) of Fluo-4 AM (Molecular Probes, Inc., Eugene, Oreg.) calcium indicator was added and incubated for 30 minutes with gentle shaking. […] The pelleted cells were re-suspended in 10 ml assay buffer and 90 μl aliquots (˜50,000 cells) per well delivered to a 96-well assay plate was placed into a fluorometric imaging plate reader (FLIPR TETRA from Molecular Devices) and basal fluorescence recorded (excitation wave length 488 nm and emission wave length 510 nm). Then 20 μl of a test compound-being tested as a TRPV1 receptor agonist was added and fluorescence recorded. The observed value with compound pretreated cells was compared with buffer control; the difference between the two indicating a measure of effect of the test compound on the agonist (TABLES 2 and 3). If any increase in fluorescence over background was noted, then the compound was considered an agonist.

[3] = concentration where the cooling effect could be clearly recognized; Emberger and Hopp 1987; cited from earlier work
[4] = Sensation reported by panelists; type: in vivo; conditions: perceived sensation, in words
[5] = biological target: T3, human TRPM8 (UniProt Q8R4D5); test: TRPM8 Protocol-FLIPR Assay (intracellular Ca2+); type: cell-based
T3 construct: Receptor Activity TRPM8; Receptor Activity TRPM8; other: test compound at 0.001%; relative to WS5 control (30 microMolar); HEK 293 cells; other: test compound at 0.004%; other: test compound at 5.2E−5%; relative to WS5 control
Experimental: (§1) To determine whether TRPM8 is activated, the intracellular calcium ion (Ca^2+) level was measured from transfected cells with the TRPM8 receptor sequence (SEQ ID NO: 3). HEK-293 (human embryonic kidney) cells stably transfected with human TRPM8 were grown in 15 ml growth medium (high glucose DMEM (Dulbecco's Modification of Eagle's Medium) supplemented with 10% FBS (fetal bovine serum), 100 ug/ml penicillin/streptomycin, 5 μg/ml blasticindin, and 100 μg/ml zeocin) in a 75 cm^2 flask for 3 days at 37° C. in a mammalian cell culture incubator set at 5% CO2 Cells were detached with addition of 2 ml of trypsin-EDTA buffer (GIBCO® 25200, Invitrogen, Grand Island, N.Y.) for about 2-3 min. Trypsin was inactivated by addition of 8 ml growth medium. Cells were transferred to a 50 ml tube and centrifuged at 850 rpm for 3 minutes to remove medium. After centrifugation, a pellet of cells was formed in the bottom of the tube separating them from the supernatant solution. The supernatant was discarded and the cell pellet was suspended in 1 ml of fresh growth medium to which 5 μl (12.5 μg) of Fluo-4 AM (Molecular Probes, Inc., Eugene, Oreg.) calcium indicator was added and incubated for 30 min with gentle shaking. Fluo-4 AM is a fluorescent dye used for quantifying cellular Ca^2+ concentrations in the 100 nM to 1 microM range. At the end of 30 minutes, 45 ml of assay buffer (1× HBSS (Hank's Balanced Salt Solution), 20 mM HEPES (4-(2-Hydroxyethyl)-1-piperazineethanesulfonic acid)) was added to wash cells and the resulting mixture was then centrifuged at 850 rpm for 3 minutes to remove excess buffer and Fluo-4 AM calcium indicator.
(§2) The pelleted cells were re-suspended in 10 ml assay buffer and 90 μl aliquots (˜50,000 cells) per well delivered to a 96-well assay plate containing 10 μl of test compounds (1 mM in assay buffer, […]) or buffer control and incubated at room temperature for 30 minutes. After 30 minutes, a plate was placed into a fluorometric imaging plate reader (FLIPR384 from Molecular Devices, Sunnyvale, Calif.) and basal fluorescence recorded (excitation wave length 488 nm and emission wave length 510 nm). Then 20 μl of […] of TRPM8 agonist WS5 coolant in the assay buffer was added and fluorescence recorded. For determining the direct effect of test compounds on TRPM8, fluorescence was measured immediately after addition of each compound (TABLES 2 and 3). Additional discussion of the FLIPR method can be found in Smart et al., Characterization using FLIPR of human vanilloid VR1 receptor pharmacology, European Journal of Pharmacology 417, 51-58 (2001) and Liu et al., Development and validation of a platelet calcium flux assay using a fluorescent imaging plate reader, Analytical Biochemistry 357, 216-224 (2006).
(§3) TRPM8 activation was determined by measuring intracellular calcium ion (Ca^2+) level from transfected cells with the TRPM8 receptor gene, as described in EXAMPLE 1, the results of which are shown in TABLES 4 and 5.

[6] = system: human TRPM8; test: TRPM8 Protocol-FLIPR Assay (intracellular Ca2+); type: cell-based; conditions: dose 30 uM
Experimental: as §1, §2, §3

[7] = test compound at 5.2E−5%, relative to Capsaicin control (350 nanoMolar), HEK 293 cells
[8] = test compound at 5.2E−5%, relative to Allyl Isothiocyanate control (50 microMolar), HEK 293 cells
[9] = test compound at 0.02%, relative to Capsaicin control (350 nanoMolar), HEK 293 cells
[10] = test compound at 0.02%, relative to Allyl Isothiocyanate control (50 microMolar), HEK 293 cells

T1 sequence (O75762 whole entry R3C/R58T/K186N): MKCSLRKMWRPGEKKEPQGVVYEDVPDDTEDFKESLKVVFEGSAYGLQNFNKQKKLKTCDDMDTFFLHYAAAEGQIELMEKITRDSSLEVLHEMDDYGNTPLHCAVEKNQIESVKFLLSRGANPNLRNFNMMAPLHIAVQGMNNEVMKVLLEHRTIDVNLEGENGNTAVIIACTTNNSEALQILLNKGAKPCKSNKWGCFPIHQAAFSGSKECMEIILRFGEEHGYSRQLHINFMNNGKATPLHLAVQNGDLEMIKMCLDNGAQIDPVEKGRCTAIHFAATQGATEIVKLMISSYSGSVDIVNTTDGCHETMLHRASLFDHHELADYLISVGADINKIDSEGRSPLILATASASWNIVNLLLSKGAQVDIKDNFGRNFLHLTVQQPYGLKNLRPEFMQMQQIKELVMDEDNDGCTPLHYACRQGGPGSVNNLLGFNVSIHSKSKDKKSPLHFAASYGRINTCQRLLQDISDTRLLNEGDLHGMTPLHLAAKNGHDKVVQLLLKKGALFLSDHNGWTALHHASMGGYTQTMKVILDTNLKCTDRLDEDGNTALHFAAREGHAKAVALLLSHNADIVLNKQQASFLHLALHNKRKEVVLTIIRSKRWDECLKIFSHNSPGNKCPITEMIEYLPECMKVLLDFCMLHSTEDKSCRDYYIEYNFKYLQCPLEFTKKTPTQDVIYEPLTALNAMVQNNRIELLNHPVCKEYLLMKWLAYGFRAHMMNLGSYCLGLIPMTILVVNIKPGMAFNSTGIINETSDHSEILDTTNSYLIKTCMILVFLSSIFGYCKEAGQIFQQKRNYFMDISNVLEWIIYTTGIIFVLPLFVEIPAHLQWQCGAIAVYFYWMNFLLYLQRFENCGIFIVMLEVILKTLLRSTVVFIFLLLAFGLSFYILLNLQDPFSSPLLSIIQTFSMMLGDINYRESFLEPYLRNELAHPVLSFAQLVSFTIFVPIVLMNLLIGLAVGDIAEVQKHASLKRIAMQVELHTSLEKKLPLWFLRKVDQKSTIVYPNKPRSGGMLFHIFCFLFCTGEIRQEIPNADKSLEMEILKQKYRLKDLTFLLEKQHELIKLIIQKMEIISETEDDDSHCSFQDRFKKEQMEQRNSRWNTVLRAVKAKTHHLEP

SMILES: C=CCN=C=S [Allyl Isothiocyanate, reference compound]
- Receptor Activity TRPA1 ([1]; control agonist at 50 microMolar (reference = 100%)): 100%

- Receptor Activity TRPV1 ([2]; control agonist at 350 nanoMolar (reference = 100%)): 100%
SMILES: COc1cc(CNC(=O)CCCC/C=C/C(C)C)ccc1O [Capsaicin, reference compound]

SMILES: CC(C)[C@@H]1CC[C@@H](C)C[C@@H]1O [Compound 1-neomenthol, 1-neomenthol]
- cooling threshold [3]: about 3,000 ppb

- Receptor Activity TRPV1 [2, 7]: 104.50%
- Receptor Activity TRPA1 [1, 8]: 242.50%
- mass efficiency relative to N-(4-cyanomethylphenyl)-p-menthanecarboxamide ([5]; at a single concentration, TRPM8 activity vs WS5): 100 ×
- Receptor Activity TRPM8 ([5]; test compound at 5.2E−6%, relative to WS5 control (30 microMolar), HEK 293 cells): 130.42%
- Receptor Activity TRPM8 ([5]; test compound at 5.2E−6%, relative to WS5 control (30 microMolar), HEK 293 cells, listed as compound 28): 130%
SMILES: CC(C)[C@@H]1CC[C@@H](C)C[C@H]1C(=O)NCC(NC(=O)[C@@H](C)N)c1ccccc1 (stereo partly drawn) [Compound 28, Cyclohexane-carboxamide, N-[2-[[(2R)-2-amino-1-oxopropyl]amino]-2-phenylethyl]-5-methyl-2-(1-methylethyl)-, (1R,2S,5R)-*]
- sensation (cooling, warming, burning) [4]: cooling sensations

- Receptor Activity TRPV1 [2, 7]: 16.24%
- Receptor Activity TRPA1 [1, 8]: 38.18%
- Receptor Activity TRPM8 ([5]; test compound at 5.2E−5%, relative to WS5 control (30 microMolar), HEK 293 cells): 109.70%
SMILES: CC(C)[C@@H]1CC[C@@H](C)C[C@H]1C(=O)NCC(OCCN)c1ccccc1 (stereo partly drawn) [Compound 30, Cyclohexane-carboxamide, N-[2-(2-aminoethoxy)-2-phenylethyl]-5-methyl-2-(1-methylethyl)-, (1R,2S,5R)-*]
- sensation (cooling, warming, burning) [4]: lack of sensation, cooling or warming

- Receptor Activity TRPV1 ([2]; test compound at 0.001%, relative to Capsaicin control (350 nanoMolar), HEK 293 cells): 0.01%
- Receptor Activity TRPA1 ([1]; test compound at 0.001%, relative to Allyl Isothiocyanate control (50 microMolar), HEK 293 cells): 68.02%
- Receptor Activity TRPM8 ([5]; test compound at 0.001%, relative to WS5 control (30 microMolar), HEK 293 cells): 108.80%
- Receptor Activity TRPM8 ([5]; test compound at 0.001%, relative to WS5 control (30 microMolar), HEK 293 cells, listed as N-(4-cyanomethylphenyl)-p-menthanecarboxamide): 109%
SMILES: CC(C)[C@@H]1CC[C@@H](C)C[C@H]1C(=O)Nc1ccc(CC#N)cc1 [Compound 180, Cyclohexane-carboxamide, N-[4-(cyanomethyl)phenyl]-5-methyl-2-(1-methylethyl)-, (1R,2S,5R)-, reference compound]

- Receptor Activity TRPV1 [2, 9]: 92.07%
- Receptor Activity TRPA1 [1, 10]: 198.79%
SMILES: CSc1ccc(NC(=O)[C@@H]2C[C@H](C)CC[C@H]2C(C)C)c(NCCN)c1 [Compound 773, Cyclohexane-carboxamide N-[2-[(2-aminoethyl)amino]-4-(methylthio)phenyl]-5-methyl-2-(1-methylethyl)-(1R,2S,5R)-*]
- sensation (cooling, warming, burning) [4]: warming

- Receptor Activity TRPV1 [2, 9]: 60.5%
- Receptor Activity TRPA1 [1, 10]: 173.88%
SMILES: CC(C)[C@@H]1CC[C@@H](C)C[C@H]1C(=O)Nc1ccc2ccccc2c1OCCN [Compound 777, Cyclohexane-carboxamide, N-[1-(2-aminoethoxy)-2-naphthalenyl]-5-methyl-2-(1-methylethyl)-, (1R,2S,5R)-*]
- sensation (cooling, warming, burning) [4]: burning
- sensation (cooling, warming, burning) ([4]; listed as test compound 777): burning sensation

SMILES: CC(C)[C@@H]1CC[C@@H](C)C[C@H]1O [L-menthol]
- cooling threshold [3]: about 800 ppb

- Receptor Activity TRPM8 ([5]; control agonist at 30 microMolar (reference = 100%)): 100%
- TRPM8 Time Course Activity 50 sec % of WS5 ([5]; dose 30 uM, 50 sec): 100.0%
- TRPM8 Time Course Activity 50 sec ([5]; dose 30 uM, fluorescence at 50 sec): 10059.7
SMILES: CCOC(=O)CNC(=O)C1CC(C)CCC1C(C)C (stereo not shown) [WS5, N-ethoxycarbonylmethyl-ρ-menthan-3-carboxamide, reference compound]
- TRPM8 Time Course Activity 50 sec % of WS5 ([6]; 50 sec): 100.0%
- TRPM8 Time Course Activity 3 min % of WS5 ([6]; 3 min): 100.0%
- TRPM8 Time Course Activity 5 min % of WS5 ([6]; 5 min): 100.0%
- TRPM8 Time Course Activity 10 min % of WS5 ([6]; 10 min): 100.0%
- TRPM8 Time Course Activity 50 sec ([6]; fluorescence at 50 sec): 10059.7
- TRPM8 Time Course Activity 3 min ([6]; fluorescence at 3 min): 9449.3
- TRPM8 Time Course Activity 5 min ([6]; fluorescence at 5 min): 9468.0
- TRPM8 Time Course Activity 10 min ([6]; fluorescence at 10 min): 9576.0

SMILES: CC(C)[C@@H]1CC[C@@H](C)C[C@@H]1O [d-neomenthol]
- cooling threshold [3]: about 25,000 ppb

— patent publication US9974761B2, “Medications for deposition on biological surfaces” (The Procter & Gamble Company, priority 2014, dated 2018)
